{"source": "ChEMBL document CHEMBL5465560", "about": "“Selectivity Literature for EUbOPEN Chemogenomic Library” (2024)", "key": {"[1]": {"target": "MAP/microtubule affinity-regulating kinase 3 (Homo sapiens) (UniProt P27448)", "sequence (P27448 whole entry, looked up)": "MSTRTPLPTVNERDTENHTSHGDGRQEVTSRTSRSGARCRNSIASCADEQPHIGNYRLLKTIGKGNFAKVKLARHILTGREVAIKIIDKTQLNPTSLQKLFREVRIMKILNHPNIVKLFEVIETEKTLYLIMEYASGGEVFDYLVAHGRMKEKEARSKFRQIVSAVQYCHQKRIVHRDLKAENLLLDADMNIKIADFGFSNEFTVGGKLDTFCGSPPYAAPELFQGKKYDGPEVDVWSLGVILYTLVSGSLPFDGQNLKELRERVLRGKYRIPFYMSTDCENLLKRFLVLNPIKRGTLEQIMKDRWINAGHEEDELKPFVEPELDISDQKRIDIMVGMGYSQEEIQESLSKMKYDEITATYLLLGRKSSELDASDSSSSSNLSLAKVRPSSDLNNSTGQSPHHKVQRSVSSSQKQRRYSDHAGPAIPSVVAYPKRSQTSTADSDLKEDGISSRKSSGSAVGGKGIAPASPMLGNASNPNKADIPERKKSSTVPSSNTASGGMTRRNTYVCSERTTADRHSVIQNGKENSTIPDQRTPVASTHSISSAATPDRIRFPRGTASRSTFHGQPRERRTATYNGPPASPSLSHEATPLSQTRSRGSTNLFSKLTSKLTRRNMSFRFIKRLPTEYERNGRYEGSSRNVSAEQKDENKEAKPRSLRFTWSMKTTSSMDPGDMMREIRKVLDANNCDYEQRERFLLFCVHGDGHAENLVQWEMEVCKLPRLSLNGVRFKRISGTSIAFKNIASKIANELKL", "assay": "Selectivity interaction (KinomeScan (DiscoverX)) EUB0000666a MARK3", "settings": "at 10 µM"}, "[2]": {"target": "Serine/threonine-protein kinase N2 (Homo sapiens, UniProt Q16513)", "sequence (Q16513 whole entry, looked up)": "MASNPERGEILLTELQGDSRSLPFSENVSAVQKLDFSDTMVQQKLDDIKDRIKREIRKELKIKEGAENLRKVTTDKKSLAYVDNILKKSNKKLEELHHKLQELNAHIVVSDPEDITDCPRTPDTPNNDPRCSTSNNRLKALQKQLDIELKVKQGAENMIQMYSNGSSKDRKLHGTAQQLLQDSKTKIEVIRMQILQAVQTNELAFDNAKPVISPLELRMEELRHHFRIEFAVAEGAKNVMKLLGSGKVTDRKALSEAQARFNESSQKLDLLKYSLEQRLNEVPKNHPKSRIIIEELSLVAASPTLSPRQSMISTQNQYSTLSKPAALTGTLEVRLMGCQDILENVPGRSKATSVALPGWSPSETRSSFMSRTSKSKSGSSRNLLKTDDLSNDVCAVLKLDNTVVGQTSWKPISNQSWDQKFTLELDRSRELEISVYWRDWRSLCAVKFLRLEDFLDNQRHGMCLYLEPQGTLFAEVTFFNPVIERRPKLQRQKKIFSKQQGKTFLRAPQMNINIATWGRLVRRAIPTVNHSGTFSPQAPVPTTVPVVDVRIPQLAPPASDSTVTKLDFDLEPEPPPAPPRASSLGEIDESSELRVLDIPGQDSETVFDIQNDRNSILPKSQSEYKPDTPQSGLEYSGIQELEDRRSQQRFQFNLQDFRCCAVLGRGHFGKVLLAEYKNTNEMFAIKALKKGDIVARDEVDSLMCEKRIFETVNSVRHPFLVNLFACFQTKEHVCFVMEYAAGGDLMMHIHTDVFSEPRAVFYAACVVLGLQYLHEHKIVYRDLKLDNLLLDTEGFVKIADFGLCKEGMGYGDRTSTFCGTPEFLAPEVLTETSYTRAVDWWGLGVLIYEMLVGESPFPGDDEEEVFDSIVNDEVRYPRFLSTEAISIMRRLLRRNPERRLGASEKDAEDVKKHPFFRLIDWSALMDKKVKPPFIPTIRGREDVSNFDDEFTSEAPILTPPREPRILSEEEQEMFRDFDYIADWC", "assay": "Selectivity interaction (KinomeScan (DiscoverX)) EUB0000607a PKN2", "settings": "at 10 µM"}, "[3]": {"target": "T1, Muscle, skeletal receptor tyrosine-protein kinase (Homo sapiens) (UniProt O15146)", "T1 sequence (whole entry)": "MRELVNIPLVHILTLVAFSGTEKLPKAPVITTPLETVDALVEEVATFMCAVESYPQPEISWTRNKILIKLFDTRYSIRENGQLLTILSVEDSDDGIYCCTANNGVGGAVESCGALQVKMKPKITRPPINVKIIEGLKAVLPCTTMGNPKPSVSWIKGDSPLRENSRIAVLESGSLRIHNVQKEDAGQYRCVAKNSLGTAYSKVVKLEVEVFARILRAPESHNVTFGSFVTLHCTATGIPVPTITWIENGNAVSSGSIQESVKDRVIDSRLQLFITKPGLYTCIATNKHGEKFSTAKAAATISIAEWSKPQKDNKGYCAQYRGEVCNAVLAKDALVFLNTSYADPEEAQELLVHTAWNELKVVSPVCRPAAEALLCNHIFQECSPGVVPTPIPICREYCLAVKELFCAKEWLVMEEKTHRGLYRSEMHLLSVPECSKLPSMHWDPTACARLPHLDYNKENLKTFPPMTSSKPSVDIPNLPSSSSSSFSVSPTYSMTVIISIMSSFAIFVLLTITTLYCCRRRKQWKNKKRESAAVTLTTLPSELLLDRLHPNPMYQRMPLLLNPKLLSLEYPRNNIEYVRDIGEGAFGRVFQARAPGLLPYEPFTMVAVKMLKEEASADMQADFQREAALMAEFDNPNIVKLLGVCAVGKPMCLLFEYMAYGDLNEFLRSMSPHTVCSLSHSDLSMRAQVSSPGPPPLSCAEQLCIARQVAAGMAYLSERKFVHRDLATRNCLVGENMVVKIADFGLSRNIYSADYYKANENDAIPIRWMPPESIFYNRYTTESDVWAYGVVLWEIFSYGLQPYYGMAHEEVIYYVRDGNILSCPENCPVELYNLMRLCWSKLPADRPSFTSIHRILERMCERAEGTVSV", "settings": "at 10 µM"}, "[4]": {"target": "Serine/threonine-protein kinase/endoribonuclease IRE1 (Homo sapiens) (UniProt O75460)", "sequence (O75460 19-977 limits assumed)": "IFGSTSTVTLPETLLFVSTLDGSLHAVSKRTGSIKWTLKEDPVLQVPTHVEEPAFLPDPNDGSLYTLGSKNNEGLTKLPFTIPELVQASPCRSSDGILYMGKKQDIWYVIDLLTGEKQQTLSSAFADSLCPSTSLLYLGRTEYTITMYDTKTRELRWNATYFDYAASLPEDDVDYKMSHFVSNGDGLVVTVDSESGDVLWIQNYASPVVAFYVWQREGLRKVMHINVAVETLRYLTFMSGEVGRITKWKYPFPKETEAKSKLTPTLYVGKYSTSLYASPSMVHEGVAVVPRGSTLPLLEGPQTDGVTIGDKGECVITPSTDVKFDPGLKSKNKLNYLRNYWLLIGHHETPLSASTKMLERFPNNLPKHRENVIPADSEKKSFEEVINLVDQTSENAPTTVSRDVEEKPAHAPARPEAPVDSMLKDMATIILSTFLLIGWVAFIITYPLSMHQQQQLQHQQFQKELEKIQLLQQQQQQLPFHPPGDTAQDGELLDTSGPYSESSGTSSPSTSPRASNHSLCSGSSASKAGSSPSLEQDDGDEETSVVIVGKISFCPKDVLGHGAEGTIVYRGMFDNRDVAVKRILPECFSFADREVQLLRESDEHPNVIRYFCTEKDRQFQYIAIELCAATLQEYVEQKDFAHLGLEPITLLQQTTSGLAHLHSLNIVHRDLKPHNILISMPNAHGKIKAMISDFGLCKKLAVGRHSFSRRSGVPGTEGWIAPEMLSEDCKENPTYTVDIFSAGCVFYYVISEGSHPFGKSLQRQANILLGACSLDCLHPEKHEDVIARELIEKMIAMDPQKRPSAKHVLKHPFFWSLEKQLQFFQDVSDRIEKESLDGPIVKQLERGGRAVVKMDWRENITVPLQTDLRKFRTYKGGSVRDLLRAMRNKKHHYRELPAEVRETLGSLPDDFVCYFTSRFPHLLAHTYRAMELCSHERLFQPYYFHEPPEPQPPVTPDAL", "assay": "Selectivity interaction (ActivX KiNativ screen (kinase selectivity in THP-1 cell lysates)) EUB0000639a ERN1", "type": "subcellular", "settings": "lysate"}, "[5]": {"target": "T2, Serine/threonine-protein kinase 3 (Homo sapiens) (UniProt Q13188)", "T2 sequence (whole entry)": "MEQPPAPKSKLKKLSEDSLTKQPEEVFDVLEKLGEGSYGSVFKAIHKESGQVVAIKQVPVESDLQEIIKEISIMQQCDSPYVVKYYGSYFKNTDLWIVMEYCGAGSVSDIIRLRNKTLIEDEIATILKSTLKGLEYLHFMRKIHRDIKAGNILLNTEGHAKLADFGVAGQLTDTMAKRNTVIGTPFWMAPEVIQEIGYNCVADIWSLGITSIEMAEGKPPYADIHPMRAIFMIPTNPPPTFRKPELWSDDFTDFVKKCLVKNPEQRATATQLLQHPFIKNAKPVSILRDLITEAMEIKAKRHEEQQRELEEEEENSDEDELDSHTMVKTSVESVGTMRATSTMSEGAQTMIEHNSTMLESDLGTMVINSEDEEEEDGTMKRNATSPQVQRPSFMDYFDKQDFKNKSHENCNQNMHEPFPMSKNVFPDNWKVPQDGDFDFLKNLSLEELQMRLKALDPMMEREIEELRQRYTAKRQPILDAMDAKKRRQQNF", "assay": "Selectivity interaction (Kinase panel (DSF assay)) EUB0001489b STK3"}, "[6]": {"target": "G protein-coupled receptor kinase 6 (Homo sapiens) (UniProt P43250)", "sequence (P43250 whole entry, looked up)": "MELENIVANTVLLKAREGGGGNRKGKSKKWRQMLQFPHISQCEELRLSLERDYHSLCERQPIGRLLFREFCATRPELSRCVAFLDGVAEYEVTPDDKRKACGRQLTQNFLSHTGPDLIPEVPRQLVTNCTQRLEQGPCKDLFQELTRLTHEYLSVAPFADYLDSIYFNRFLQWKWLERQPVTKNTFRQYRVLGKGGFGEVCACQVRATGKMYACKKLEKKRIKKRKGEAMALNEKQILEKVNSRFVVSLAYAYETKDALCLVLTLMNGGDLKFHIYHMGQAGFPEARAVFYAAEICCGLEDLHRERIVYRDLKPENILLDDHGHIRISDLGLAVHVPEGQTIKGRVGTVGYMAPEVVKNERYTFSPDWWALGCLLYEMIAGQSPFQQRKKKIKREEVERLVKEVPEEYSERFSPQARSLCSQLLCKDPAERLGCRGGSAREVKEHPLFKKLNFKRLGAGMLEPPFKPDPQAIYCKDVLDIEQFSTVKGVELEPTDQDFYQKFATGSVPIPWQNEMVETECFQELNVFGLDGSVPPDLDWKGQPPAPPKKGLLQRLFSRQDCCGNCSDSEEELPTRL", "assay": "Selectivity interaction (ProQinase) EUB0000171b GRK6"}, "[7]": {"target": "Serine/threonine-protein kinase 25 (Homo sapiens) (UniProt O00506)", "sequence (O00506 whole entry, looked up)": "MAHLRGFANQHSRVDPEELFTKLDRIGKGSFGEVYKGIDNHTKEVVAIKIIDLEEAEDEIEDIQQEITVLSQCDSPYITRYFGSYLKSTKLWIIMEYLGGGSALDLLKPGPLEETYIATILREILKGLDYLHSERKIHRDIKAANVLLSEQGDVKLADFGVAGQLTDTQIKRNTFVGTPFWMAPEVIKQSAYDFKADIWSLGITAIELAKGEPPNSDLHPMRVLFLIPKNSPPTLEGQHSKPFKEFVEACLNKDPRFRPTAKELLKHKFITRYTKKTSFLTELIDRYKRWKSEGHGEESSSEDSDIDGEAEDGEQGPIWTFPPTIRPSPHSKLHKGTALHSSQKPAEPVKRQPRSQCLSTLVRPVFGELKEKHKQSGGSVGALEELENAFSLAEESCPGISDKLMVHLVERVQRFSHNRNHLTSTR", "assay": "Selectivity interaction (KinomeScan (DiscoverX)) EUB0000595a STK25", "settings": "at 10 µM"}, "[8]": {"target": "Cyclin-dependent kinase 9 (Homo sapiens, UniProt P50750)", "sequence (P50750 whole entry)": "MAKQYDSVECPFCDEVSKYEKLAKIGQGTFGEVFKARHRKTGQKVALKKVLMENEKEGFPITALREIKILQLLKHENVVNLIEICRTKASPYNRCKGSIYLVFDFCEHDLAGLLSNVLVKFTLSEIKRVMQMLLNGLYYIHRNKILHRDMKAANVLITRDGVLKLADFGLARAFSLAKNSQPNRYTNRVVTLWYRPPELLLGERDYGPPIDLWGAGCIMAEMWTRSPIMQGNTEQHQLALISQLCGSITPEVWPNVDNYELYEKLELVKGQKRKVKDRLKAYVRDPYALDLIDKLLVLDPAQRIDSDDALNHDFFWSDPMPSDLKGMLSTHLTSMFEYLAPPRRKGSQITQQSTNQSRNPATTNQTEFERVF", "assay": "Selectivity interaction (KinomeScan (DiscoverX)) EUB0000045b CDK9"}, "[9]": {"target": "Mitogen-activated protein kinase 3 (Homo sapiens, UniProt P27361)", "sequence (P27361 whole entry)": "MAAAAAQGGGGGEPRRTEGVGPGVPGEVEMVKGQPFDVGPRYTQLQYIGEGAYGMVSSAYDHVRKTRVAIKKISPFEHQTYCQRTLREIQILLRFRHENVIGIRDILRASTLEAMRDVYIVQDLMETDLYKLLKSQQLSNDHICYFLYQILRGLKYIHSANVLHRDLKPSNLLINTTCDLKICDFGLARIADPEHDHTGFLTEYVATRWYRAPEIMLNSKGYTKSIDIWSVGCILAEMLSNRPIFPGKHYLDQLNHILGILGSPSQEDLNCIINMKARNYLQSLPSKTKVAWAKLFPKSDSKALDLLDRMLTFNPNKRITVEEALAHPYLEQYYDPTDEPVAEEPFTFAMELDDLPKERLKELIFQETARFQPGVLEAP", "assay": "Selectivity interaction (KinomeScan (DiscoverX)) EUB0000045b MAPK3"}, "[10]": {"target": "T3, Dual specificity mitogen-activated protein kinase kinase 5 (Homo sapiens) (UniProt Q13163)", "T3 sequence (whole entry)": "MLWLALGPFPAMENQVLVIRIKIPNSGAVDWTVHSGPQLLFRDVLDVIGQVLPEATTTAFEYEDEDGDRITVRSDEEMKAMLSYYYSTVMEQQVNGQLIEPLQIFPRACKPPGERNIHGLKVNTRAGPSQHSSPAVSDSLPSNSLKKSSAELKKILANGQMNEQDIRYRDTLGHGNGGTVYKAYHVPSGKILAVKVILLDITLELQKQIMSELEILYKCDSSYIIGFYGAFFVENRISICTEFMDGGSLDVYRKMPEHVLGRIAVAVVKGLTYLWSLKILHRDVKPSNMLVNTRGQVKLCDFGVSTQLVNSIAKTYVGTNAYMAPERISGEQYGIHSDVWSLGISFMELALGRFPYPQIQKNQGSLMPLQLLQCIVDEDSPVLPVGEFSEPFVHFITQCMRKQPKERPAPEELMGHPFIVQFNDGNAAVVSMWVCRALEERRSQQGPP", "assay": "Selectivity interaction (KinomeScan (DiscoverX)) EUB0000092b MAP2K5", "settings": "at 10 µM"}}, "data": [{"smiles": "O=C(NOC[C@H](O)CO)c1ccc(F)c(F)c1Nc1ccc(I)cc1F", "values": [{"measurement": "% of control", "setting": "[1]", "value": 91, "unit": "%"}]}, {"smiles": "CNC(=O)Nc1ccc(-c2nc(N3CC4CCC(C3)O4)c3cnn(C4CCC5(CC4)OCCO5)c3n2)cc1", "values": [{"measurement": "% of control", "setting": "[2]", "value": 83, "unit": "%"}]}, {"smiles": "CCN(CC)CCCCNc1ncc2cc(-c3cc(OC)cc(OC)c3)c(NC(=O)NC(C)(C)C)nc2n1", "values": [{"measurement": "% of control", "setting": "[3]", "value": 100, "unit": "%"}]}, {"smiles": "CC[C@@H]1[C@H](F)C(=O)N[C@@H]1COc1nccc2cc(C(N)=O)c(OC)cc12", "note": "[ZIMLOVISERTIB]", "values": [{"measurement": "% of inhibition", "setting": "[4]; at 0.01 µM", "value": -5.9, "unit": "%"}, {"measurement": "% of inhibition", "setting": "[4]; at 0.04 µM", "value": -16.2, "unit": "%"}, {"measurement": "% of inhibition", "setting": "[4]; at 0.2 µM", "value": -1.2, "unit": "%"}, {"measurement": "% of inhibition", "setting": "[4]; at 1 µM", "value": -2.9, "unit": "%"}, {"measurement": "% of inhibition", "setting": "[4]; at 5 µM", "value": -24, "unit": "%"}]}, {"smiles": "CN1CCN(C(=O)c2ccc3cc2OCCOCCNc2ccn4ncc-3c4n2)CC1", "values": [{"measurement": "dTM", "setting": "[5]", "value": 3.4, "unit": "K"}]}, {"smiles": "C=CC(=O)Nc1cccc(C(=O)Nc2ccc(Nc3cc(-c4[nH]c(SC)nc4C)ccn3)cc2)c1", "values": [{"measurement": "% of control", "setting": "[6]; at 1 µM", "value": 88, "unit": "%"}, {"measurement": "% of control", "setting": "[6]; at 5 µM", "value": 90, "unit": "%"}]}, {"smiles": "COCC(=O)NC/C=C/c1ccc2ncnc(Nc3ccc(Oc4ccc(C)nc4)c(C)c3)c2c1", "note": "[CP-724714]", "values": [{"measurement": "% of control", "setting": "[7]", "value": 94, "unit": "%"}]}, {"smiles": "C=CC(=O)Nc1cc(-n2c(=O)ccc3cnc4ccc(-c5ccc(NS(C)(=O)=O)cc5)cc4c32)ccc1C", "values": [{"measurement": "% of control", "setting": "[8]; at 1 µM", "value": 100, "unit": "%"}, {"measurement": "% of control", "setting": "[8]; at 10 µM", "value": 95, "unit": "%"}, {"measurement": "% of control", "setting": "[9]; at 1 µM", "value": 100, "unit": "%"}, {"measurement": "% of control", "setting": "[9]; at 10 µM", "value": 79, "unit": "%"}]}, {"smiles": "CCC(=O)N1CCN(c2ccc(-n3c(=O)ccc4cnc5ccc(-c6cnc7ccccc7c6)cc5c43)cc2C(F)(F)F)CC1", "values": [{"measurement": "% of control", "setting": "[10]", "value": 100, "unit": "%"}]}]}
